The values that follow come from publication PMC2375326, “In vitro evaluation of amino acid prodrugs of novel antitumour 2-(4-amino-3-methylphenyl)benzothiazoles” (British Journal of Cancer, 2002).

In data set [1] the test system is DU-145. The data set is described as follows: NCI in vitro cytotoxicity assay (SRB), DU-145. It counts as cell-based. The following applies: Homo sapiens, 48 h exposure, sulforhodamine B assay, mean graph, read-out: Log10 GI50 (DU-145) (converted). How it is done: (§1) Cell culture and drug application procedures have been described previously ([Boyd and Paull, 1995]). Briefly, cell lines were inoculated into a series of 96-well microtiter plates, with varied seeding densities depending on growth characteristics of each cell line. Following a 24 h drug free incubation, test agents were added at five 10-fold dilutions with a maximum concentration of 100 μM. Cellular protein levels were determined after 48 h drug exposure by sulphorhodamine B colorimetry.
(In general: Sulforhodamine B stains cellular protein and so reports cell mass.)

The subject of data set [2] is MCF7. The data set is described as follows: NCI in vitro cytotoxicity assay (SRB), MCF7. It counts as cell-based. The following applies: Homo sapiens, 48 h exposure, sulforhodamine B assay, mean graph, read-out: Log10 GI50 (MCF7) (converted). As for the experimental part:
as §1

The target in data set [3] is T1, CYP1A1 (Homo sapiens, UniProt P04798).
T1 sequence (P04798 1-512): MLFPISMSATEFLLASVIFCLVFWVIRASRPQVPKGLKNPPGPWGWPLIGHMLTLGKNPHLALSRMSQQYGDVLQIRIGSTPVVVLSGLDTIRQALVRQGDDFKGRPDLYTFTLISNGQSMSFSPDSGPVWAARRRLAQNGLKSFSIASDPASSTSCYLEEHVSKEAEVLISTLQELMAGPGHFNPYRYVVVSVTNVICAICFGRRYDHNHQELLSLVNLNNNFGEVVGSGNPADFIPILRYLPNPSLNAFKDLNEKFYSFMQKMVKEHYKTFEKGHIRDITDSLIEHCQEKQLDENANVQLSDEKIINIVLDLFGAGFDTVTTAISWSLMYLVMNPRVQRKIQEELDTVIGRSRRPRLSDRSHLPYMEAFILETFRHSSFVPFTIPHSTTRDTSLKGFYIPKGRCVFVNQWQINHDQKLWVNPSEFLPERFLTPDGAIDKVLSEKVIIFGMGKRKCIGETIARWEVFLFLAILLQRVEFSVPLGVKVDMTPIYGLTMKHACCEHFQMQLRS
Description: Inhibition of recombinant CYP1A1 microsomal EROD activity. It counts as biochemical. Particulars: microsomes expressing recombinant CYP1A1, pH 7.4, probe 7-ethoxyresorufin (100 μM); 30 μM agent; incubates without drug = 100% activity; mean of three, s.d. <10%; read-out: Microsomal CYP1A1 EROD activity (% control). As for the experimental part:
A sensitive and rapid fluorometric assay was used to measure EROD activity ([Burke et al, 1994]). Incubation mixtures (total 1 ml) consisted of 100 mM Tris-HCl (pH 7.4), 50 μM MgCl2, 100 μM 7-ethoxyresorufin and 100 μl cell homogenate. Homogenates were prepared following treatment of cells for 24 h with compounds 1, 2, 2a, 2b, 3, 3a, 3b, 4, 4a and 4b or vehicle alone and protein content determined (n=3). Thus induction of ethoxyresorufin O-deethylation by agents under study, catalysed by CYP1A1 activity, could be determined. Alternatively, microsomes expressing recombinant CYP1A1 (0.1 mg ml^−1) provided the enzyme source for EROD catalysis, in the presence or absence of drug, in order to determine inhibition of CYP1A1 activity by compounds 1, 2, 2a, 2b, 3, 3a, 3b, 4, 4a and 4b. Incubation mixtures were pre-incubated for 5 min at 37°C before initiation of reaction by addition of NADPH (500 μM). Following further incubations at 37°C (30 min for cell homogenates, 15 min for CYP1A1 microsomes), reactions were terminated by addition of 3 ml ice-cold acetonitrile. Reaction mixtures were centrifuged (1400 r.p.m., 10 min) before analyses of supernatants. Fluorescence was read on a Perkin-Elmer LS-5 luminescence spectrometer (excitation, 530 nm; emission 585 nm). Estimation of resorufin reaction product (pmoles mg^−1 protein, pmoles 100 μg^−1 microsomes), as a measure of CYP1A1 activity, was determined following performance of a resorufin standard curve.

Data set [4] has as its system COLO 205. Description: NCI in vitro cytotoxicity assay (SRB), COLO 205. The data set is classed as cell-based. The following applies: Homo sapiens, 48 h exposure, sulforhodamine B assay, mean graph, read-out: Log10 GI50 (COLO 205) (converted). As for the experimental part:
as §1

In data set [5] the test system is SK-OV-3. The data set is described as follows: NCI in vitro cytotoxicity assay (SRB), SK-OV-3. The data set is classed as cell-based. The following applies: Homo sapiens, 48 h exposure, sulforhodamine B assay, mean graph, read-out: Log10 GI50 (SK-OV-3) (converted). As for the experimental part:
as §1

The subject of data set [6] is OVCAR-5. Description: NCI in vitro cytotoxicity assay (SRB), OVCAR-5. The data set is classed as cell-based. Particulars: Homo sapiens, 48 h exposure, sulforhodamine B assay, mean graph, read-out: Log10 GI50 (OVCAR-5) (converted). As for the experimental part: as §1
The test system of data set [7] is A549/ATCC. The data set is described as follows: NCI in vitro cytotoxicity assay (SRB), A549/ATCC. The data set is classed as cell-based. The following applies: Homo sapiens, 48 h exposure, sulforhodamine B assay, mean graph, read-out: Log10 GI50 (A549/ATCC) (converted). As for the experimental part: as §1
In data set [8] the test system is TK-10. Description: NCI in vitro cytotoxicity assay (SRB), TK-10. It counts as cell-based. The following applies: Homo sapiens, 48 h exposure, sulforhodamine B assay, mean graph, read-out: Log10 GI50 (TK-10) (converted). How it is done: as §1
In data set [9] the test system is SNB-19. The data set is described as follows: NCI in vitro cytotoxicity assay (SRB), SNB-19. It counts as cell-based. The following applies: Homo sapiens, 48 h exposure, sulforhodamine B assay, mean graph, read-out: Log10 GI50 (SNB-19) (converted). As for the experimental part: as §1
Data set [10] concerns MDA-MB-231/ATCC. The data set is described as follows: NCI in vitro cytotoxicity assay (SRB), MDA-MB-231/ATCC. The data set is classed as cell-based. Particulars: Homo sapiens, 48 h exposure, sulforhodamine B assay, mean graph, read-out: Log10 GI50 (MDA-MB-231/ATCC) (converted). As for the experimental part: as §1
Data set [11] relates to MCF-7 (ER+) human derived breast carcinoma cells. Description: Growth inhibitory assay (MTT), MCF-7. The data set is classed as cell-based. Particulars: MCF7, ER+ MCF-7, 3 days (72 h) treatment, n=8, representative mean, ^a = biphasic dose response. As for the experimental part:
Prodrugs were prepared as 10 mM top stocks, dissolved in dimethylsulphoxide (DMSO) or sterile ddH2O, and stored at 4°C, protected from light for a maximum period of 4 weeks. MCF-7 (ER+) and MDA 468 (ER−) human derived breast carcinoma cells, cultivated at 37°C in an atmosphere of 5% CO2 in RPMI 1640 medium supplemented with 2 mM L-glutamine and 10% foetal calf serum, were routinely subcultured twice weekly to maintain continuous logarithmic growth. Cells were seeded into 96-well microtiter plates at a density of 5×10^3 per well and allowed 24 h to adhere before drugs were introduced (final concentration 0.1 nM–100 μM, n=8). Serial drug dilutions were prepared in medium immediately prior to each assay. Viable cell masses at the time of drug addition (time-zero), and following 72 h drug exposure were determined by cell-mediated 3-(4,5-dimethylthiazol-2-yl)-2,5-diphenyltetrazolium bromide (MTT) reduction. MTT was added to each well (final concentration 400 μg ml^−1) and plates were incubated at 37°C for 4 h to allow reduction of MTT by viable cell dehydrogenases to an insoluble formazan product. Well supernatants were aspirated and cellular formazan solubilised by addition of DMSO : glycine buffer (pH 10.5) (4 : 1). Cell growth as well as drug activity were determined by measuring absorbance at 550 nm using an Anthos Labtec systems plate reader.

SMILES strings stand for the structures.

As for `Cc1cc(-c2nc3cc(F)ccc3s2)ccc1N` [Compound 2, 2-(4-Amino-3-methylphenyl)-5-fluorobenzothiazole], the GI50 in data set [1] is 95.5 µM; in data set [2], under 0.01 µM; in [4] it was 66.1 µM; in [5], 83.2 µM; in data set [6] it was 0.0107 µM; in [7] it was 6.92 µM. In addition, the GI50 is under 0.01 µM in [8], 26.3 µM in data set [9], 17.4 µM in [10] and under 0.0001 µM in data set [11]. The activity at 15 min, 30 μM in data set [3] is 30.4%.

As for `Cc1cc(-c2nc3cc(F)ccc3s2)ccc1NC(=O)[C@@H](N)CCCCN` [Compound 2b], the GI50 in [1] was 16.2 µM; in data set [2], under 0.01 µM; in data set [4] it was 3.31 µM; in data set [5], 16.2 µM; in data set [6], 0.126 µM; in data set [7], 1.7 µM. The GI50 in data set [8] is 0.0174 µM; in data set [9] it was 13.5 µM; in data set [10], 3.55 µM; in data set [11], 0.0391 µM. In data set [3], the activity at 15 min, 30 μM amounted to 38.5%.
